According to the NIST ThermoML archive (doi:10.1016/j.fluid.2015.09.031):
± gives the expanded uncertainty stated by the source.

Conditions: Liquid, Ebulliometric method (Recirculating still)

| Structure (SMILES) | vapor or sublimation pressure (288.15 K) | vapor or sublimation pressure (298.15 K) | vapor or sublimation pressure (308.15 K) |
| --- | --- | --- | --- |
| CCCCCl [1-chlorobutane] | 8.4 ± 0.1 kPa | 13.52 ± 0.1 kPa | 21.04 ± 0.1 kPa |
| CCC(C)Cl (stereo not given) [2-chlorobutane] | 13.36 ± 0.1 kPa | 20.91 ± 0.1 kPa | 31.55 ± 0.11 kPa |
| CCCCCCC [heptane] | 3.63 ± 0.1 kPa | 6.095 ± 0.1 kPa | 9.865 ± 0.1 kPa |

Second part, the compound after the results:

| vapor or sublimation pressure (288.15 K) | vapor or sublimation pressure (298.15 K) | vapor or sublimation pressure (308.15 K) | Structure (SMILES) |
| --- | --- | --- | --- |
| 13 ± 0.1 kPa | 20.35 ± 0.1 kPa | 30.45 ± 0.11 kPa | CC(C)CCl [1-chloro-2-methylpropane] |
| 26.42 ± 0.11 kPa | 40.13 ± 0.11 kPa | 59.52 ± 0.12 kPa | CC(C)(C)Cl [2-chloro-2-methylpropane] |
